Results published in PMC3472544, “Glycosaminoglycan analogs as a novel anti-inflammatory strategy” (Frontiers in Immunology, 2012).

How the values were obtained:
CCL5 = biological target: T1, CCL5 (Homo sapiens, UniProt P13501); experiment: NMR-based CCL5 binding, Kd from 15N-HSQC titration; details: for Kd: determined by protein NMR, pH 3.2, 30°C; for selective binding to CCL5 in the NMR screen: 206 compound library, 200 μM, HSQC chemical shift changes
T1 construct: made in house
T1 sequence (P13501 24-91): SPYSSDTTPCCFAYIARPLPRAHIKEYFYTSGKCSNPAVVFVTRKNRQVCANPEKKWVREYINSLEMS
Procedure: These molecules were charged, and contained multiple acid groups, such as carboxylates and sulfonates. In addition, many of the molecules were aromatic, to provide some hydrophobicity. The library was pooled into sets containing five compounds and these pools mixed at 200 μM, with an equal concentration of CCL5 at 30°C, and a heteronuclear single quantum coherence (HSQC) spectrum recorded immediately. For pools that induced significant change in the protein chemical shifts, a second round of screening was performed in which each of the five compounds was added individually to the protein solution. […] Dissociation constants were obtained by fitting the recorded chemical shift as a function of increasing ligand concentrations with: (1) δobs=δf+LbΔb −f in which δobs is the observed chemical shift at each point of the titration curve, δf is the chemical shift of the free protein and Δb − f is the difference in chemical shift between free and fully complexed protein.

[1] = tested on: paw thickness after SRBC challenge; experiment: Delayed-type hypersensitivity (DTH) model, SRBC; assay type: in vivo, BALB/c mice; details: for inhibition of paw swelling: oligosaccharides 10 mg/kg s.c. at −30 min and +8 h, dexamethasone by oral gavage 30 min before challenge, paw thickness at 21 h
Procedure: Female BALB/c mice were immunized with 2 × 10^6 sheep red blood cells (SRBC) by subcutaneous route (s.c.) at the base of the tail. Five days later mice were challenged with an s.c. injection of 2 × 10^6 SRBC into the softpaw of the left hindpaw. The paw thickness was measured 21 h later and the difference calculated based on values obtained before challenge. MHxS, NisS, and StachS were injected s.c. at a dose of 10 mg/kg, 30 min before and 8 h after challenge. Vehicle was 0.02% BSA diluted in PBS. The reference compound, dexamethasone, was diluted in saline and administered by oral gavage 30 min before challenge. Group sizes were 6 for sham and 8 for all other groups.
Figure 5 Inhibition of delayed-type hypersensitivity. Immunization was performed by s.c. administration of SRBC, followed by a challenge in the hindpaw 5 days later. The persulfated oligosaccharides (10 mg/kg) were administered 30 min prior and 8 h after the challenge. Dexamethasone was used as a positive control, and paw thickness was measured 21 h following the challenge. The statistical differences vs. the control group (mice challenged with SRBC and treated with vehicle for the compounds 0.02% BSA diluted in PBS) are shown whenever present and indicated by ^*P <0.05>; ^***P < 0.001. TEXT PRINTED IN THE PICTURE: dexamethasone: 47% *** | MHxS: 39% *** | NisS: 20% * | StachS: 41% ***

CCL5 binding to heparin = biological target: T2, CCL5 binding to heparin (Homo sapiens, UniProt P13501); experiment: Immobilized heparin competition binding assay ([125I]-CCL5 on heparin-Sepharose beads); details: [125I]-CCL5 0.05 nM, 4 h, read-out: IC50 for the inhibition of CCL5 binding to heparin
T2 sequence (P13501 24-91): T1 sequence (P13501 24-91)
Procedure: Competition experiments were performed as described elsewhere (Severin et al., [2010]). Briefly, heparin-Sepharose beads (Sepharose beads or binding buffer as a background control) and increasing amounts of antagonist were added to each well of a 96 well filter plate. [^125I]-CCL5, was added last, to reach a final concentration of 0.05 nM. The plates were incubated on a shaker at room temperature for 4 h. Each experiment was performed in triplicate, and the results are given as the mean of the three assays.

[2] = tested on: citrated plasma from healthy human blood donors; experiment: Anti-coagulation assay: Activated Partial Thromboplastin Time (APTT); details: calibrated against heparin standard curve, samples at 1 mg/ml (MHxS 0.1 mg/ml)
Procedure: Activated Partial Thromboplastin Time (APTT) assays were performed by GlycoMar. 10 mg/ml stock solutions of NisS, StachS, and MHxS, were prepared using dH2O and stored at −20°C until use. Samples were tested at 1 mg/ml. All further dilutions were in dH2O. Prior to each assay, a calibration curve of heparin ranging from 0 to 10 IU/ml was prepared using 5th International Standard Heparin. (GlycoMar ID:92, batch 97/578, Expiry 21SEP10). Fresh human blood from healthy human blood donors was collected into S-Monovette Coagulation tubes from Sarstedt. Nine parts of freshly drawn venous blood were collected into one part trisodium citrate (0.106 M). Plasma was obtained by centrifugation at 1500 × g for 10 min. Each of the carbohydrate samples was diluted and tested at 1 mg/ml in the first instance. MHxS was subsequently tested at 0.1 mg/ml to be within the time frame of the standard curve. The APTT assay was run on an ACL 9000 Coagulation Analyzer. The coagulation time of HemosIL Normal Control (cat no. 0020003110) was checked. Samples, standards and controls were mixed 1:10 with citrated plasma in a test tube, loaded into the ACL 9000 carousel and analyzed using the extended APTT run program.

[3] = tested on: leukocyte recruitment into the synovial (knee) cavity; experiment: Antigen-induced arthritis (AIA) model, mBSA; assay type: in vivo, mice; details: 50 μg s.c. immediately after mBSA; cells counted at 24 h
Procedure: Induction of disease was performed by injection of 10 μg methylated bovine serum albumin (mBSA) as a 10 μL injection into the synovial cavity. Test compounds, at a total dose of 50 μg were injected in a total volume of 200 μL subcutaneously immediately after mBSA administration. Group sizes were 4–6 animals. Total leukocytes (A), neutrophils (B), and mononuclear cells (C) in the synovial cavity were enumerated 24 h after mBSA injection (Sachs et al., [2011]).
Figure 6 Inhibition of antigen induced arthritis. An injection of mBSA into the synovial cavity was used to induce disease. 50 μg of the inhibitors were administered s.c. immediately after the mBSA injection, and the cells in the synovial cavity were enumerated 24 h later. (A) Total cells; (B) […]; (C) mononuclear cells. ^*P < 0.05.

Molecule	Kd (CCL5)	also measured
Nc1ccc(O)c(S(=O)(=O)O)c1 [Molecule 6]	500 µM	
C[C@@H]1C[C@H]2[C@@H]3CCC4=CC(=O)C=C[C@]4(C)[C@@]3(F)[C@@H](O)C[C@]2(C)[C@@]1(O)C(=O)CO [dexamethasone, reference compound]		inhibition of paw swelling [1]: 47%
Nc1cc(C(=O)O)c(O)c(S(=O)(=O)O)c1 [Molecule 7]	35 µM	
O=C(O)c1cc(NS(=O)(=O)c2ccc([N+](=O)[O-])cc2)cc(S(=O)(=O)O)c1O [Molecule 9]	300 µM	
O=S(=O)(O)c1cc(O)ccc1O [Molecule 5]	> 500 µM	
persulfated Nis [NisS]		IC50 (CCL5 binding to heparin): 5.89 ± 0.04 µM; Anticoagulant activity (heparin-equivalent) [2]: 6.87 ± 3.22 IU/mg; inhibition of paw swelling [1]: 20%; mononuclear cell recruitment into the knee cavity [3]: statistically significant reduction; neutrophil recruitment into the knee cavity [3]: statistically significant reduction
O=C(O)c1cc(S(=O)(=O)O)c(O)cc1O [Molecule 11]	< 10 µM	
CC(=O)Nc1cc(C(=O)O)c(O)c(S(=O)(=O)O)c1 [Molecule 8]	20 µM	selective binding to CCL5 in the NMR screen (CCL5): confirmed to be selectively binding to CCL5
O=C(O)c1ccccc1O [Molecule 4]	350 µM	
O=C(O)c1c(O)ccc(S(=O)(=O)O)c1O [Molecule 10]	18 µM	selective binding to CCL5 in the NMR screen (CCL5): confirmed to be selectively binding to CCL5
persulfated Stach [StachS]		IC50 (CCL5 binding to heparin): 18.6 ± 4.34 µM; Anticoagulant activity (heparin-equivalent) [2]: 6.90 ± 2.69 IU/mg; reduction of paw thickness compared with dexamethasone ([1]; 10 mg/kg s.c. at −30 min and +8 h): comparable effect; inhibition of paw swelling [1]: 41%
O=C(O)c1c(O)c(S(=O)(=O)O)cc(S(=O)(=O)O)c1O [Molecule 12]	1 to 5 µM	

Continued, in another order:

Kd (CCL5)	Molecule	also measured
50 µM	O=S(=O)(O)c1ccccc1O [Molecule 13]	
40 µM	CC(=O)Nc1ccc(S(=O)(=O)Nc2cc(C(=O)O)c(O)c(S(=O)(=O)O)c2)cc1 [Molecule 16]	
< 1 µM	O=C(O)c1cc(S(=O)(=O)Nc2cc(C(=O)O)c(O)c(S(=O)(=O)O)c2)ccc1O [Molecule 14]	
